Columns and labels:
[1] = Hepatocyte stability, mouse; type: in vitro ADME; settings: mouse hepatocytes; read-out: Hepatocyte stability, Clint scaled ws
CYP 1A2 = CYP 1A2 (Homo sapiens, UniProt P05177); assay: CYP inhibition 1A2; type: in vitro ADME
[2] = tested on: synovial sarcoma xenograft model; assay: Tumor volume in a synovial sarcoma xenograft model (FIG. 1); type: in vivo
BRD7 = target: T1, BRD7 (Homo sapiens, UniProt Q9NPI1); assay: BRD7 degradation (24 h), HiBiT 293T.167 cells; type: cell-based
T1 construct: endogenously expressing BRD7 with HiBiT fusion tag via CRISPR; host or cells: 293T.167 (BRD7-HiBiT), also expressing LgBiT ectopically
Excerpt: (§1) Dulbecco's modified Eagle medium (DMEM) without phenol red and fetal bovine serum (FBS) were purchased from Gibco (Grand Island, N.Y., USA). Nano-Glo® HiBiT Lytic Assay System was purchased from Promega (Madison, Wis., USA). 293T.166 (BRD9-HiBiT) cell line, endogenously expressing BRD9 with HiBiT fusion tag via CRISPR and ectopically expressing LgBiT tag, was purchased from Promega (Madison, Wis., USA). 293T.167 (BRD7-HiBiT) cell line, endogenously expressing BRD7 with HiBiT fusion tag via CRISPR and ectopically expressing LgBiT tag, was purchased from Promega (Madison, Wis., USA). 293T.92 (BRD4-HiBiT) cell line, endogenously expressing BRD4 with HiBiT fusion tag via CRISPR and ectopically expressing LgBiT tag, was generated in-house. Cell culture flasks and 384-well microplates were acquired from VWR (Radnor, Pa., USA).
(§2) BRD9 degradation was determined based on quantification of luminescent signal using Nano-Glo® HiBiT Lytic Assay kit. Test compounds were added to the 384-well plate from a top concentration of 10 μM with 11 points, half log titration in duplicates. 293T.166 cells were added into 384-well plates at a cell density of 10,000 cells per well. […] BRD7 and BRD4 degradation was similarly determined with 293T.167 cells and 293T.92 cells, respectively. […] Luminescence was acquired on EnVision™ Multilabel Reader (PerkinElmer, Santa Clara, Calif., USA).

SALL4 = SALL4 (Homo sapiens, UniProt Q9UJQ4); assay: SALL4 degradation; type: cell-based; settings: one value given for IKZF1/SALL4/GSPT1
CYP 2D6 = CYP 2D6 (Homo sapiens, UniProt P10635); assay: CYP inhibition 2D6; type: in vitro ADME
CYP 3A4 = CYP 3A4 (Homo sapiens, UniProt P08684); assay: CYP inhibition 3A4; type: in vitro ADME
BRD9 [3] = target: T2, BRD9 (Homo sapiens, UniProt Q9H8M2); assay: In-vivo BRD9 degradation in the Aska-SS xenograft model; settings: various concentrations and times, FIG. 13
T2 sequence (Q9H8M2 1-597): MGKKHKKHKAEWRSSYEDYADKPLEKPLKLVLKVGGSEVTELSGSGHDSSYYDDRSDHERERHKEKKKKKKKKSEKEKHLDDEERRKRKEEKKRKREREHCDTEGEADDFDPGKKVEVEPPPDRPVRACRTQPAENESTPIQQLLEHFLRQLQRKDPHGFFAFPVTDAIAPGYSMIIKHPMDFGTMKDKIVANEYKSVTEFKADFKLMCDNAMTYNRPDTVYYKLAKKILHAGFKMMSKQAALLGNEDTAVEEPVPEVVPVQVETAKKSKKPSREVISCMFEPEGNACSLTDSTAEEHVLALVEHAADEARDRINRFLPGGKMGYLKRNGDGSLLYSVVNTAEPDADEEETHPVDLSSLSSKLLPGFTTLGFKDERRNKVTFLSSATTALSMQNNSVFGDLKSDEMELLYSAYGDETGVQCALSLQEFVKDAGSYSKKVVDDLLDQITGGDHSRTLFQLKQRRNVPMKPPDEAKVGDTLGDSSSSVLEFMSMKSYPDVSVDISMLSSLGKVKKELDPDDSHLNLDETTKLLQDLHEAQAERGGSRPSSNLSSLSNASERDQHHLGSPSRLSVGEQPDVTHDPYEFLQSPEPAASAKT

HEPG2 = HEPG2 viability; type: cell-based; settings: HEPG2 cells
BRD9 [4] = target: T2, BRD9; assay: In-vivo BRD9 degradation in the Yamato-SS xenograft model; settings: various concentrations and times, FIG. 12
BRD9-E3 = BRD9-E3 (Homo sapiens, UniProt Q96SW2+Q9H8M2); assay: BRD9-E3 dimerization; type: biochemical; settings: not explained
IKZF1 = IKZF1 (Homo sapiens, UniProt Q13422); assay: IKZF1 degradation; type: cell-based; settings: one value given for IKZF1/SALL4/GSPT1
BRD9 [5] = target: T2, BRD9; assay: BRD9 degradation kinetics; type: cell-based; parameters: endogenously expressing BRD9 with HiBiT fusion tag via CRISPR; host or cells: 293T.166 (BRD9-HiBiT), also expressing LgBiT ectopically
BRD4 = target: T3, BRD4 (Homo sapiens, UniProt O60885); assay: BRD4 degradation (24 h), HiBiT 293T.92 cells; type: cell-based
T3 construct: endogenously expressing BRD4 with HiBiT fusion tag via CRISPR; endogenous in cells; host or cells: 293T.92 (BRD4-HiBiT), generated in-house, also expressing LgBiT ectopically
Excerpt: as §1, §2

Caco-2 permeability = type: in vitro ADME; settings: human
SW982 = SW982 viability (GI50); type: cell-based; settings: Homo sapiens; SW982 cells
CYP 2B6 = CYP 2B6 (Homo sapiens, UniProt P20813); assay: CYP inhibition 2B6; type: in vitro ADME
Chain of CYP 2B6 (P20813 whole entry): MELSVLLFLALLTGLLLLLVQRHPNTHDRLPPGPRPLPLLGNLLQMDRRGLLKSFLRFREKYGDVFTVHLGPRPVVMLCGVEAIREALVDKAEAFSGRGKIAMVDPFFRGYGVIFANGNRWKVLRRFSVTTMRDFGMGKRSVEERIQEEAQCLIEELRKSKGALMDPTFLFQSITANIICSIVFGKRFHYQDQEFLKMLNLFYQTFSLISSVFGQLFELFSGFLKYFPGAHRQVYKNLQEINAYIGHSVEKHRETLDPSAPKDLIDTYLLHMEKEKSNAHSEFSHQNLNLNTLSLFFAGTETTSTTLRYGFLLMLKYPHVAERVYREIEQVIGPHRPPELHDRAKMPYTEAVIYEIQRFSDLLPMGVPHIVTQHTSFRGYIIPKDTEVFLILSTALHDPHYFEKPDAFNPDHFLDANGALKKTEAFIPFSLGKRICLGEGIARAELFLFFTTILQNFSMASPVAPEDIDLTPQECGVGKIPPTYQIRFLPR

Chain of BRD9-E3 (Q96SW2 whole entry, one chain of several): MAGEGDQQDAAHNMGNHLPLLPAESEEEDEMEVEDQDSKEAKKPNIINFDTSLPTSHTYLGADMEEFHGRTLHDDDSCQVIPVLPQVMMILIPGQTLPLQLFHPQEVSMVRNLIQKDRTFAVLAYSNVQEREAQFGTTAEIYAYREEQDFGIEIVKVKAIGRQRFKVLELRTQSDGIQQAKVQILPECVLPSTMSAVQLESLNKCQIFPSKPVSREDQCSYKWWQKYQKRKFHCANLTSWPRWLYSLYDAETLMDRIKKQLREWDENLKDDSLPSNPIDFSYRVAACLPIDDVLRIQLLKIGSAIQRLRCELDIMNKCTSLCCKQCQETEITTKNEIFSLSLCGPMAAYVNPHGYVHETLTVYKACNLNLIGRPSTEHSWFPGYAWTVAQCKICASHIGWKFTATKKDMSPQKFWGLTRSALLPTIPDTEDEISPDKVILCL
T1 sequence (Q9NPI1 whole entry, the tested form may be a part): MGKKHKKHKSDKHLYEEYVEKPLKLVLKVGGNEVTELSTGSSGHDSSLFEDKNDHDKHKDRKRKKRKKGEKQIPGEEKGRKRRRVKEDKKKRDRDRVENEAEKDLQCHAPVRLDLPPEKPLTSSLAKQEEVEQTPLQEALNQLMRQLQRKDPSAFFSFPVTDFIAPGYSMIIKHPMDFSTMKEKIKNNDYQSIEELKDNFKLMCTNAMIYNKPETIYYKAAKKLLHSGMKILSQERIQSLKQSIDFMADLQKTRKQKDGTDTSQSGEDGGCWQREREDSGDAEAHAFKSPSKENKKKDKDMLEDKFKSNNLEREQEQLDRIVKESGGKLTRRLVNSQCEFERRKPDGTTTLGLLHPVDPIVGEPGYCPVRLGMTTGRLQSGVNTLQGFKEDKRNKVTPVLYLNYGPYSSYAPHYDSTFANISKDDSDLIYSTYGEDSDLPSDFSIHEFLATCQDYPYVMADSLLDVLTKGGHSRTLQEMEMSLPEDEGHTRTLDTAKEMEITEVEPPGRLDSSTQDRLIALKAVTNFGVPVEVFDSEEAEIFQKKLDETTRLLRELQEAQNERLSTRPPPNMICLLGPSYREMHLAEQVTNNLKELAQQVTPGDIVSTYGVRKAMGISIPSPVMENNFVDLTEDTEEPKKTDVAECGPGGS
Chain of CYP 1A2 (P05177 whole entry): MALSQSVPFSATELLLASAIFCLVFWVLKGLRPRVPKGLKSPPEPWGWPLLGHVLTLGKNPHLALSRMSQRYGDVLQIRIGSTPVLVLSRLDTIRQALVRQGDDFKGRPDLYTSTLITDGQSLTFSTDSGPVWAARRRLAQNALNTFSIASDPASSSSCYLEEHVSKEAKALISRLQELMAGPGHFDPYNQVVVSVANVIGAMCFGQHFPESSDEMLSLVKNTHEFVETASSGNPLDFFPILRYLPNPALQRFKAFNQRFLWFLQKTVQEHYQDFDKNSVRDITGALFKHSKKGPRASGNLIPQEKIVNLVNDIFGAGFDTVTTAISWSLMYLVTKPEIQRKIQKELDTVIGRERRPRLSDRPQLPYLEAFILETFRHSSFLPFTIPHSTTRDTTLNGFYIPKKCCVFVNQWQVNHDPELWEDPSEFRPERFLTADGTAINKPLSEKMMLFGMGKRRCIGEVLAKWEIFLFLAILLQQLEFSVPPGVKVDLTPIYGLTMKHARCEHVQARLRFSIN
Chain of CYP 2D6 (P10635 whole entry): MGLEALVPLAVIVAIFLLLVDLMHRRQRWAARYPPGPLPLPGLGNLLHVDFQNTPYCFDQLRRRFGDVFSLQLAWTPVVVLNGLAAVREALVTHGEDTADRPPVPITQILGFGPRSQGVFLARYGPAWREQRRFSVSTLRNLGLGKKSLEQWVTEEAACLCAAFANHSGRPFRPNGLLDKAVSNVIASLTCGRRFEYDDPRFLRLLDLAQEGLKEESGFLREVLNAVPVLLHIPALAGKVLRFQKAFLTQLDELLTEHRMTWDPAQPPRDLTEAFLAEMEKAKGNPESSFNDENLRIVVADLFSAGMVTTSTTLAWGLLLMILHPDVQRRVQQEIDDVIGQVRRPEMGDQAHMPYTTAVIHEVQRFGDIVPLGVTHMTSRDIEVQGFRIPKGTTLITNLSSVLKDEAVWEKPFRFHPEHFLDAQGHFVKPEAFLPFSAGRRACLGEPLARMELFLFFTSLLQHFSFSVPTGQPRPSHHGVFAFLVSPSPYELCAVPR
Chain of IKZF1 (Q13422 whole entry, species assumed, the tested form may be a part): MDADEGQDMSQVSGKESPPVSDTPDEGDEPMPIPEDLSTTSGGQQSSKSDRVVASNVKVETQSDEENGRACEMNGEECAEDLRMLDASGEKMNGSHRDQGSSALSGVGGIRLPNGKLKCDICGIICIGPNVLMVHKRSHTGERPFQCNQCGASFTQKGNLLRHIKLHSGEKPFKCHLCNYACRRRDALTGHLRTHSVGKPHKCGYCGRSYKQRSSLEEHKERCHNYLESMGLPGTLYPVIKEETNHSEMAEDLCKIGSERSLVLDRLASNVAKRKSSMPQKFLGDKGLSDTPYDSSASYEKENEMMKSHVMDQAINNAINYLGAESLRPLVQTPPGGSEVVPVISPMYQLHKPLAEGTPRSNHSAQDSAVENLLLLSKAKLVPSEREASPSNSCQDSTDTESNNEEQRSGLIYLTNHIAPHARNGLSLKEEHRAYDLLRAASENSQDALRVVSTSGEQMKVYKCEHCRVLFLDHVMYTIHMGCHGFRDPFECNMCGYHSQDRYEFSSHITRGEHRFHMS
Chain of CYP 3A4 (P08684 whole entry): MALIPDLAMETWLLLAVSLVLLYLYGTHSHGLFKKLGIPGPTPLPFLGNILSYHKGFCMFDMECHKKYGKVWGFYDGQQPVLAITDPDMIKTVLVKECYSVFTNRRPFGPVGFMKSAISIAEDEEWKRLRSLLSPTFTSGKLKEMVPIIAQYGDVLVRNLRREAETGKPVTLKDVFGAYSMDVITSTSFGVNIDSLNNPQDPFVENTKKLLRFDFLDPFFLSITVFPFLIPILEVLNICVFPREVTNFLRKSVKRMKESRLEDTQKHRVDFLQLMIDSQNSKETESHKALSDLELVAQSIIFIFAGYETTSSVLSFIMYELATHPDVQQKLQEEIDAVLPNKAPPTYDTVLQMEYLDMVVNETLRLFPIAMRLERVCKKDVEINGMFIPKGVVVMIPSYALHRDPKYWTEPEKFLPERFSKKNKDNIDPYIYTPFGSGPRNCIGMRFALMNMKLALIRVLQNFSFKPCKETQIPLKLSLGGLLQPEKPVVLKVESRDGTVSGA
Chain of SALL4 (Q9UJQ4 whole entry, species assumed): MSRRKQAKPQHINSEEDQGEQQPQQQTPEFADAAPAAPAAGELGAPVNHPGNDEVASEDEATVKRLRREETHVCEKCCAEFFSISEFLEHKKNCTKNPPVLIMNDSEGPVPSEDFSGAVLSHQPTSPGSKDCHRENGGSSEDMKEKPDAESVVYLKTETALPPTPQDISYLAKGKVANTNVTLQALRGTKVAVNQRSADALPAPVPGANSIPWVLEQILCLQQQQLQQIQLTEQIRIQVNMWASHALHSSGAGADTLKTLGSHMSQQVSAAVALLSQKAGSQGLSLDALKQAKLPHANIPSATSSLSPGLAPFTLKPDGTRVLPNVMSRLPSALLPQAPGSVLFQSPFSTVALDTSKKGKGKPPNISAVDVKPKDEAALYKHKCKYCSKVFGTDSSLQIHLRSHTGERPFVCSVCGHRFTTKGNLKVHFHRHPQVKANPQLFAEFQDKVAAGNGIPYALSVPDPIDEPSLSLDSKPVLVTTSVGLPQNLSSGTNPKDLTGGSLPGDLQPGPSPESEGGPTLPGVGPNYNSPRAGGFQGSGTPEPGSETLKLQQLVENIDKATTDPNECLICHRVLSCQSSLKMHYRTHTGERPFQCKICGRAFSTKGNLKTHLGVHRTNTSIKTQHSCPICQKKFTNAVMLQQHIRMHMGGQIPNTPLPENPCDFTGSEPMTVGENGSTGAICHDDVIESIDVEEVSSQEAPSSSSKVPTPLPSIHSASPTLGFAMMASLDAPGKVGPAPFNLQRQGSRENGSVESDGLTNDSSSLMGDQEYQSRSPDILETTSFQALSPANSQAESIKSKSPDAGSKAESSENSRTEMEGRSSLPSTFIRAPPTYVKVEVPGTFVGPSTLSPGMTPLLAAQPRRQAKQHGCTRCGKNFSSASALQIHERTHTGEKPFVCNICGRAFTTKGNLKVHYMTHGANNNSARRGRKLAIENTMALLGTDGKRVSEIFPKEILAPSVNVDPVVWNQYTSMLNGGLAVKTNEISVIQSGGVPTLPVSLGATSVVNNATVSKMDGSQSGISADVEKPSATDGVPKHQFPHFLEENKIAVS

COc1cc(-c2cn(C)c(=O)c(C)c2C)cc(OC)c1CN1CCC(N2CCN(c3ccc(NC4CCC(=O)NC4=O)cc3F)CC2)C(F)(F)C1 (single isomer, unassigned) [Compound 176, 3-[4-[4-[1-[[2,6-dimethoxy-4-(1,4,5-trimethyl-6-oxo-3-pyridyl)phenyl]methyl]-3,3-difluoro-4-piperidyl]piperazin-1-yl]-3-fluoro-anilino]piperidine-2,6-dione]
CLint scaled [1]: 30 mL/min/kg

COc1cc(-c2cn(C)c(=O)c(C)c2C)cc(OC)c1CN1CCC(N2CCN(c3ccc(NC4CCC(=O)NC4=O)cc3F)CC2)C(F)(F)C1 (centres unmarked) [Compound 172, 3-[4-[4-[1-[[2,6-dimethoxy-4-(1,4,5-trimethyl-6-oxo-3-pyridyl)phenyl]methyl]-3,3-difluoro-4-piperidyl]piperazin-1-yl]-3-fluoro-anilino]piperidine-2,6-dione]
CLint scaled [1]: 38 mL/min/kg | IC50 (CYP 1A2): 30 µM | tumor volume after treatment [2]: strong effect | Emax (BRD7): 100% | DC50 (BRD7; 24 h, read-out: BRD7 degradation (24 h), IP): > 9.99 µM | DC50 (SALL4): > 9.99 µM | IC50 (CYP 2D6): 30 µM | IC50 (CYP 3A4): 18.2 µM | in-vivo BRD9 degradation (normalized concentration) (BRD9 [3]): dose dependent in-vivo BRD9 degradation | HEPG2 Viability (HEPG2): >9.99 µM | in-vivo BRD9 degradation (normalized concentration) (BRD9 [4]): dose dependent in-vivo BRD9 degradation | BRD9-E3 dimerization, first value (BRD9-E3; first of three values): 120 nM | BRD9-E3 dimerization, second value (BRD9-E3; second of three values): 461 nM | BRD9-E3 dimerization, third value (BRD9-E3; third of three values): 13% | DC50 (IKZF1): > 9.99 µM | BRD9 Degradation kinetics, first value (BRD9 [5]; first of three values, not explained): 11 nM | BRD9 Degradation kinetics, second value (BRD9 [5]; second of three values, not explained): > 832 nM | BRD9 Degradation kinetics, third value (rate) (BRD9 [5]; third of three values): 1.81 h⁻¹ | Emax (BRD4): 81% | DC50 (BRD4; 24 h, read-out: BRD4 degradation (24 h), IP): 2 µM | efflux ratio (Caco-2 permeability): 2.64 | Papp A→B (Caco-2 permeability; A-B): 7.1 ×10⁻⁶ cm/s | Papp B→A (Caco-2 permeability; B-A): 18.7 ×10⁻⁶ cm/s | GI50 (SW982): > 10 µM | IC50 (CYP 2B6): 0.1 µM

Source: patent US11691972B2, “Compounds for targeted degradation of BRD9” (C4 Therapeutics, Inc., priority 2020, dated 2023)
